Results taken from ChEMBL document CHEMBL3045344, “Synthesis of d-amino acid peptides and their effect on beta-amyloid aggregation and toxicity in transgenic Caenorhabditis elegans” (Med Chem Res, 2013).
The source made the active and inactive calls. No cut-off for these calls is given here. Square brackets hold non-standard residues; d marks the D form. Peptide text beside a SMILES is read from it.

Tests used:
[1] = target: Amyloid-beta precursor protein (Homo sapiens) (UniProt P05067); test: Stabilization of random coil conformation of amyloid beta (1-42) (unknown origin) after 3 days by CD spectroscopy
Caenorhabditis elegans [2] = test: Increase in survival of transgenic Caenorhabditis elegans CL2006 expressing human amyloid beta42 at 123 ug/ml; type: functional, organism-based
[3] = target: Amyloid-beta precursor protein (Homo sapiens) (UniProt P05067); test: Inhibition of amyloid beta (1-42) (unknown origin) assembly assessed as decrease in fibril formation after 3 days by ThT stain based fluorescence microscopy
[4] = target: Amyloid-beta precursor protein (Homo sapiens) (UniProt P05067); test: Induction of amyloid beta (1-42) (unknown origin) oligomer formation after 48 hr by silver staining
[5] = target: Amyloid-beta precursor protein (Homo sapiens) (UniProt P05067); test: Induction of amyloid beta (1-42) (unknown origin) aggregation at Abeta42/compound molar ratio of 1:5 after 3 days by turbidity based assay
[6] = target: Amyloid-beta precursor protein (Homo sapiens) (UniProt P05067); test: Induction of amyloid beta (1-42) (unknown origin) aggregation at Abeta42/compound molar ratio of 1:1 after 3 days by turbidity based assay
[7] = target: Amyloid-beta precursor protein (Homo sapiens) (UniProt P05067); test: Binding affinity to amyloid beta (1-42) (unknown origin) assessed as increase in hydrophobic site exposure at Abeta42/compound molar ratio of 1:5 after 3 days by ANS fluorescence analysis
[8] = target: Amyloid-beta precursor protein (Homo sapiens) (UniProt P05067); test: Inhibition of amyloid beta (1-42) (unknown origin) fibril formation at Abeta42/compound molar ratio of 1:1 after 3 days by thioflavin T fluorescence method
[9] = target: Amyloid-beta precursor protein (Homo sapiens) (UniProt P05067); test: Binding affinity to amyloid beta (1-42) (unknown origin) assessed as increase in hydrophobic site exposure at Abeta42/compound molar ratio of 1:1 after 3 days by ANS fluorescence analysis
[10] = target: Amyloid-beta precursor protein (Homo sapiens) (UniProt P05067); test: Inhibition of amyloid beta (1-42) (unknown origin) fibril formation at Abeta42/compound molar ratio of 1:5 after 3 days by thioflavin T fluorescence method
Caenorhabditis elegans [11] = test: Increase in survival of transgenic Caenorhabditis elegans CL2006 expressing human amyloid beta42 at 124 ug/ml; type: functional, organism-based
[12] = target: Amyloid-beta precursor protein (Homo sapiens) (UniProt P05067); test: Inhibition of amyloid beta (1-42) (unknown origin) oligomer formation after 48 hr by silver staining
[13] = target: Amyloid-beta precursor protein (Homo sapiens) (UniProt P05067); test: Inhibition of amyloid beta (1-42) (unknown origin) aggregation at Abeta42/compound molar ratio of 1:5 after 3 days by turbidity based assay
[14] = target: Amyloid-beta precursor protein (Homo sapiens) (UniProt P05067); test: Induction of amyloid beta (1-42) (unknown origin) assembly assessed as mixed fibril and spherical aggregate formation after 3 days by ThT stain based fluorescence microscopy
[15] = target: Amyloid-beta precursor protein (Homo sapiens) (UniProt P05067); test: Inhibition of amyloid beta (1-42) (unknown origin) aggregation at Abeta42/compound molar ratio of 1:1 after 3 days by turbidity based assay

Sequence of Amyloid-beta precursor protein (Homo sapiens) (P05067 whole entry): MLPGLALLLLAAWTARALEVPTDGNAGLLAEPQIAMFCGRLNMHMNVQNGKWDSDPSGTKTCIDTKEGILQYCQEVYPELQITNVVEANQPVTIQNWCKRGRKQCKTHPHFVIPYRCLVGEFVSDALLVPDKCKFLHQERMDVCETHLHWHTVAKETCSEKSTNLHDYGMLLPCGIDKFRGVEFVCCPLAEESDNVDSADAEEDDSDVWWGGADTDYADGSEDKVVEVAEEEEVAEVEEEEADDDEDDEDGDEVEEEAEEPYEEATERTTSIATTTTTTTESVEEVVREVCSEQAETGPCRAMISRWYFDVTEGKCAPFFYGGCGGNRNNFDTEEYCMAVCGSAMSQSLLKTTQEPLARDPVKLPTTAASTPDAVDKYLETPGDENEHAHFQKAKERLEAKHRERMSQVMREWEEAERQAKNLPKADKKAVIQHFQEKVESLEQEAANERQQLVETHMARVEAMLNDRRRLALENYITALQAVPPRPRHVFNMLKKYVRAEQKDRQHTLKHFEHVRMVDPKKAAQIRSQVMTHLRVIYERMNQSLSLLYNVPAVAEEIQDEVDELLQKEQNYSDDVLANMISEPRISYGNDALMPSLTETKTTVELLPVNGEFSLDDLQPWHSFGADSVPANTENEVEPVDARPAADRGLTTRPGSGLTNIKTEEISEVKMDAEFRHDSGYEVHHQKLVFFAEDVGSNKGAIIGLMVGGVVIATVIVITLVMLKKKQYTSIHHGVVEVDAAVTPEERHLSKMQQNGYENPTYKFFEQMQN

`CC(C)C[C@@H](NC(=O)[C@@H](CCCCN)NC(=O)[C@H](N)CCCCN)C(=O)N[C@@H](C(=O)N[C@H](Cc1ccccc1)C(=O)N[C@H](Cc1ccccc1)C(=O)N[C@H](C)C(=O)N[C@H](CCCNC(=N)N)C(=O)N[C@H](CCCNC(=N)N)C(=O)N[C@H](CCCNC(=N)N)C(=O)N[C@H](CCCNC(=N)N)C(=O)N[C@H](C)C(=O)O)C(C)C` was tested, and the Activity [1] was “Active”, the Activity (Caenorhabditis elegans [2]) was “inactive” and the inhibition [3] was “Active”. For the same compound, the Activity [4] was “Active”, the Activity [5] was “Active” and the Activity [6] was “Active”. For the same compound, the Activity [7] was “Active”, the inhibition [8] was “Active” and the Activity [9] was “Active”. The inhibition [10] was “Active”.
With `CC(C)C[C@@H](NC(=O)[C@@H](CCCCN)NC(=O)[C@H](N)CCCCN)C(=O)N[C@@H](C(=O)N[C@H](Cc1ccccc1)C(=O)N[C@H](Cc1ccccc1)C(=O)N[C@H](C)C(=O)O)C(C)C` (H-[dK][dK][dL][dV][dF][dF][dA]-OH) the Activity [1] was “Active”, the Activity (Caenorhabditis elegans [11]) was “Active” and the inhibition [12] was “Active”. The inhibition [3] was “Active”, the Activity [5] was “Active” and the Activity [6] was “Active”. The Activity [7] was “Active”, the inhibition [8] was “Active” and the Activity [9] was “Active”. The inhibition [10] was “Active”.
With `CC(C)C[C@@H](NC(=O)[C@@H](CCCCN)NC(=O)CNC(=O)[C@H]1CCCN1)C(=O)N[C@@H](C(=O)N[C@H](Cc1ccc(O)cc1)C(=O)N[C@H](C)C(=O)O)C(C)C` the Activity [1] was “Active”, the Activity (Caenorhabditis elegans [11]) was “Active” and the inhibition [12] was “Active”. For the same compound, the Activity [7] was “Active”, the inhibition [8] was “inactive” and the inhibition [13] was “Active”. For the same compound, the Activity [14] was “Active”, the Activity [9] was “Active” and the inhibition [10] was “inactive”. For the same compound, the inhibition [15] was “Active”.
